Assay results taken from patent US12495798B2, “Nicotinamide compound and herbicidal composition comprising compound” (KOREA RESEARCH INSTITUTE OF CHEMICAL TECHNOLOGY, priority 2019, dated 2025).

Tests used:
Type in all cases: in vivo
bindweed = test: Herbicidal activity test against upland field weeds (foliar treatment test); conditions: 50 g ai/ha, scale 0-100
Procedure, shortened: (§1)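 Weeds were raised from seed or rootstocks in horticultural soil in a greenhouse (30±5° C., 14/10 h light/dark), then foliage was hand-sprayed with compound at 50 or 75 g a.i./ha in 50% acetone with 0.1% Tween-20. Control was scored visually 0–100 against untreated plants after 14 days, or 21 if needed.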

barnyard grass = test: as above; conditions: Echinochloa crus-galli, 50 g ai/ha, scale 0-100
Procedure, shortened: as §1

crabgrass = test: as above; design: key to Foliar treatment herbicidal activity, Crabgrass: 0 (no control); 100 (complete control); conditions: 50 g ai/ha, scale 0-100; for pest or weed control at 50 g/ha: Digitaria sanguinalis
Procedure, shortened: as §1

velvetleaf = test: as above; conditions: Abutilon theophrasti, 50 g ai/ha, scale 0-100, read-out: Foliar treatment herbicidal activity, velvet leaf
Procedure, shortened: as §1

fall panicum = test: as above; conditions: Panicum dichotomiflorum, 50 g ai/ha, scale 0-100
Procedure, shortened: as §1

quack grass = test: as above; design: key to Foliar treatment herbicidal activity, quack grass: 0 (no control); 100 (complete control); conditions: 50 g ai/ha, scale 0-100
Procedure, shortened: as §1

wheat = test: Phytotoxicity test for upland field crops (foliar treatment test); design: key: 0 (no harm); 9 (complete withered)
Procedure, shortened: (§2)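 Greenhouse-grown crops (30±5 °C, 14/10 h light/dark) in soil pots were foliar-sprayed with compound in 33% acetone/0.1% Tween-20 at 19˜300 g a.i./ha, 100 ml per m^2. Injury was graded 0 (no harm) to 9 (complete withered) versus untreated control at 7 and 14 days after treatment, or 21 days if needed.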

corn = test: as above; design: key: 0 (no harm); 9 (complete withered)
Procedure, shortened: as §2

sorghum = test: Herbicidal activity test against upland field weeds (foliar treatment test); design: key to Foliar treatment herbicidal activity, Sorghum: 0 (no control); 100 (complete control); conditions: 50 g ai/ha, scale 0-100; for plant injury at 50 g/ha: Sorghum
Procedure, shortened: as §1

indian jointvetch = test: as above; design: key to Foliar treatment herbicidal activity, Indian jointvetch: 0 (no control); 100 (complete control); conditions: 50 g ai/ha, scale 0-100
Procedure, shortened: as §1

black nightshade = test: as above; design: key to Foliar treatment herbicidal activity, black nightshade: 0 (no control); 100 (complete control); conditions: 50 g ai/ha, scale 0-100; for pest or weed control at 50 g/ha: Solanum nigrum
Procedure, shortened: as §1

cocklebur = test: as above; conditions: Xanthium strumarium, 50 g ai/ha, scale 0-100
Procedure, shortened: as §1

[1] = 50 g ai/ha, Wheat (7 days after treatment)
[2] = 50 g ai/ha, Wheat (14 days after treatment)
[3] = 100 g ai/ha, Wheat (7 days after treatment)
[4] = 100 g ai/ha, Wheat (14 days after treatment)
[5] = 50 g ai/ha, Corn (7 days after treatment)
[6] = 50 g ai/ha, Corn (14 days after treatment)
[7] = 100 g ai/ha, Corn (7 days after treatment)
[8] = 100 g ai/ha, Corn (14 days after treatment)

| SMILES | pest or weed control at 50 g/ha (bindweed) | pest or weed control at 50 g/ha (barnyard grass) | pest or weed control at 50 g/ha (crabgrass) | pest or weed control at 50 g/ha (velvetleaf) | pest or weed control at 50 g/ha (fall panicum) | Foliar treatment herbicidal activity, quack grass (quack grass) | Foliar treatment phytotoxicity, Wheat (wheat; [1]) | Foliar treatment phytotoxicity, Wheat (wheat; [2]) | Foliar treatment phytotoxicity, Wheat (wheat; [3]) | Foliar treatment phytotoxicity, Wheat (wheat; [4]) | Foliar treatment phytotoxicity, Corn (corn; [5]) | Foliar treatment phytotoxicity, Corn (corn; [6]) | Foliar treatment phytotoxicity, Corn (corn; [7]) | Foliar treatment phytotoxicity, Corn (corn; [8]) | plant injury at 50 g/ha (sorghum) | pest or weed control at 50 g/ha (black nightshade) | pest or weed control at 50 g/ha (cocklebur) | pest or weed control at 50 g/ha (indian jointvetch) | other results |
| --- | --- | --- | --- | --- | --- | --- | --- | --- | --- | --- | --- | --- | --- | --- | --- | --- | --- | --- | --- |
| C=C(C)c1nc(COCc2nc(C(F)(F)F)ccc2C(=O)Nc2nnnn2C)nn1C [Compound No. 2-128, N-(1-methyl-1H-tetrazol-5-yl)-2-(((1-methyl-5-(prop-1-en-2-yl)-1H-1,2,4-triazol-3-yl)methoxy)methyl)-6-(trifluoromethyl)nicotinamide] | 40% | 60% | 60% | 70% | 70% | 0 | 0 | 0 | 0 | 0 | 1 | 0 | 2 | 0 | 20% | 90% | 50% | – | Foliar treatment herbicidal activity, Indian jointvetch (indian jointvetch): 0 |
| CCn1nnc(COCc2nc(C(F)(F)F)ccc2C(=O)Nc2nnnn2C)n1 [Compound No. 2-87, 2-(((2-ethyl-2H-tetrazol-5-yl)methoxy)methyl)-N-(1-methyl-1H-tetrazol-5-yl)-6-(trifluoromethyl)nicotinamide] | 80% | 10% | – | 70% | 40% | 0 | 0 | 0 | 0 | 0 | 0 | 0 | 0 | 0 | – | 98% | 60% | 20% | Foliar treatment herbicidal activity, Crabgrass (crabgrass): 0; Foliar treatment herbicidal activity, Sorghum (sorghum): 0 |
| C=Cc1nc(COCc2nc(C(F)(F)F)ccc2C(=O)Nc2nnnn2C)nn1C [Compound No. 2-127, N-(1-methyl-1H-tetrazol-5-yl)-2-(((1-methyl-5-vinyl-1H-1,2,4-triazol-3-yl)methoxy)methyl)-6-(trifluoromethyl)nicotinamide] | 50% | 60% | 60% | 30% | 40% | 0 | 0 | 0 | 0 | 0 | 0 | 0 | 0 | 0 | 30% | 80% | 60% | 20% | – |
| COCn1nnc(COCc2nc(C(F)(F)F)ccc2C(=O)Nc2nnnn2C)n1 [Compound No. 2-91, 2-(((2-(methoxymethyl)-2H-tetrazol-5-yl)methoxy)methyl)-N-(1-methyl-1H-tetrazol-5-yl)-6-(trifluoromethyl)nicotinamide] | 70% | 80% | 90% | 98% | 70% | 0 | 0 | 0 | 0 | 0 | 2 | 1 | 3 | 3 | 50% | – | 98% | 95% | Foliar treatment herbicidal activity, black nightshade (black nightshade): 100 |
